The record followed here is patent US8389509B2, “Substituted pyrazole compounds” (Bristol-Myers Squibb Company, priority 2009, dated 2013).

Molecules are shown by their SMILES. pEC50: −log10 of the molar value.

A word on the pEC50: it is the negative decadic logarithm of the EC50, by convention in mol/L. Higher therefore signals a small EC50.

The target of this test is T1, S1P1 (Homo sapiens, UniProt P21453).
T1 construct: expressed in transfected cells; host or cells: CHO cells
The experiment in a line: Method B: Receptor [35S] GTPγS SPA Binding Assay, S1P1. Format: biochemical. On the procedure:
Method B: Receptor [^35S] GTPγS SPA Binding Assays
Membranes prepared from S1P1 or S1P3 transfected CHO cells (2 μg protein) were incubated in 96-well white plates (CORNING® 3693) with test compounds diluted in DMSO, in 50 μl of reaction mixture containing 7.5 μA WGA-PVT beads (20 mg/ml), and 5 μM GDP, 20 mM HEPES pH 7.4, 100 mM NaCl, 1 mM EDTA, 5 mM MgCl2, 10 μg/ml saponin, 0.1% BSA, and 1 μM leupeptin. The assay was initiated with the addition of […] of 0.2 nM [^35S]-GTPγS (1250 Ci/mmol; NEN) in assay buffer. After 90 min incubation at room temperature, spin the plate at 1000 rpm for 5 min. The bound radionuclides were measured at TOPCOUNT®, expressed as % response relative to S1P (1 μM) activation. Data was analyzed using the four parameter logistic equation in Excel. The four parameters in the equation, Y=A+((B−A)/(1+((EC50/X)^D))), are described as following: A is the Y value (agonist activity) at the bottom plateau; B is the Y value at the top plateau; EC50 is the X value (agonist concentration) when the response is halfway between bottom and top; D is Hill coefficient. Curves were not generated for compounds having Ymax values were below 50%.
Compounds of the present invention and Comparative Compound A were tested in the Receptor [^35S] GTPγS Binding Assays (Method A) and Receptor [^35S] In some instances, the value is an average of multiple experiments where N is the number of experiments conducted that provided satisfactory dose response curves. When more than one batch of an example was tested, the value presented is from a batch which allowed a comparison of GTPγS S1P1 and GTPγS S1P3 in which the most number of experiments were performed. Preferably, the same batch was examined in Method A and Method B. Data was not averaged across different batches of an example compound.
On the technique in general: GTPγS resists hydrolysis and so accumulates on activated G proteins.

T1 sequence (P21453 whole entry): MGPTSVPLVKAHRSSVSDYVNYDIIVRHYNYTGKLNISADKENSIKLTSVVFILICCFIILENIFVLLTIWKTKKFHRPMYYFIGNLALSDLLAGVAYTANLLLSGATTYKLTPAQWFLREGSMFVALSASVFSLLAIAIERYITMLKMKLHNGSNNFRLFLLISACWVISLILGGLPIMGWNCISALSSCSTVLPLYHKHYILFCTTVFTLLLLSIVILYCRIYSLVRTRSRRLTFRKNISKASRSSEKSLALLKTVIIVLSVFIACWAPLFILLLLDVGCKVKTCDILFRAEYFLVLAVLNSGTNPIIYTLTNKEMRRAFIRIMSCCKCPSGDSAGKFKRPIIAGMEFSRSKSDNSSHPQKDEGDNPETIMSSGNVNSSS

Consider `O=C(O)C1CN(Cc2ccc(-c3noc(-c4cnn(-c5ccccn5)c4C(F)(F)F)n3)cc2)C1` [Example 1, 1-(4-(5-(1-(Pyridin-2-yl)-5-(trifluoromethyl)-1H-pyrazol-4-yl)-1,2,4-oxadiazol-3-yl)benzyl)azetidine-3-carboxylic acid], for which the pEC50 (Method B (SPA), S1P1 transfected CHO cell membranes) is 9.30. For the same compound, the “GTPγS S1P3/S1P1 (Method B)” value (ratio of S1P3 EC50 to S1P1 EC50, Method B) was 8,800.
